Source: patent publication US20090191543A1, “IDENTIFICATION OF RAC1B AS A MARKER AND MEDIATOR OF METALLOPROTEINASE-INDUCED MALIGNANCY” (THEREGENTS OF THE UNIVERSITY OF CALIFORNIA, priority 2005, published 2009)
One block for each molecule: values may come before it.

Experiments:
MMP-3 = molecular target: T1, MMP-3 (Rattus norvegicus, UniProt P03957); test: Effect of MMP inhibitor on cells treated with MMP-3 (vimentin-EGFP construct, morphology, FIG. 8b); format: cell-based, mouse
T1 construct: expressed in transfected cells; host or cells: SCp2 cells; conditioned medium used as the MMP-3 source
T1 sequence (P03957 98-475): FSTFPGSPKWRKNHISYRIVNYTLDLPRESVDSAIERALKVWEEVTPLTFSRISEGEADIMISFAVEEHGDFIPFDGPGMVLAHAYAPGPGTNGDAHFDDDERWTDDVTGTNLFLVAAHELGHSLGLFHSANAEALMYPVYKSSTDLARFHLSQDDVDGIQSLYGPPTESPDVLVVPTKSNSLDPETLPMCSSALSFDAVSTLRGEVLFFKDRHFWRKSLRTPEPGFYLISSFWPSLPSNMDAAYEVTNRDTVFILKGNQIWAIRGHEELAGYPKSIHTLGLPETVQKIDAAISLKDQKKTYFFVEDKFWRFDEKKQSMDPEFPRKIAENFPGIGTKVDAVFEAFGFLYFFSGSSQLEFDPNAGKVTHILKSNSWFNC
Description: The MMP inhibitor GM6001 blocked the MMP-3-mediated effects. […] Scale bar, 50 μm.

8-oxodeoxyguanosine = test: 8-oxoG analysis, FITC-avidin nuclear staining (DNA damage); format: cell-based, mouse; details: for MMP-3-induced increase in FITC-avidin nuclear staining: cells treated with MMP-3 plus inhibitor, FIG. 4b
Method: ROS and 8-oxoG analyses. […] FITC-conjugated avidin (Sigma; 1 hr, 37° C.). […] ID NO: 12). […] J Cell Biol 158, 357-68 (2002).

Snail = Snail transcript expression; format: cell-based, mouse; details: FIG. 3b; for expression of the transcription factor Snail: MMP-3, or H2O2 in the absence of MMP-3
Method: (§1) Except as otherwise indicated, cells were incubated in the presence of conditioned medium containing MMP-3 for 4 days and with 25 μM H2O2 for 7 days. NAC was used at a concentration of 10 mM. Antibodies against cytokeratin and vimentin were described previously (Lochter, A. et al. J Biol Chem 272, 5007-15, 1997; Lochter, A. et al. J Cell Biol 139, 1861-72, 1997).
(§2) […]; all modified plasmids were sequence-verified.

vimentin = test: Mesenchymal vimentin expression; format: cell-based, mouse; details: for expression of mesenchymal vimentin: MMP-3 4 days or 25 μM H2O2 7 days
Method: as §1, §2

SCp2 cells [1] = test: Cell scattering (FIG. 3f); format: cell-based, mouse
Method: as §1

SCp2 cells [2] = test: PALA resistance assay (genomic instability); format: cell-based, mouse
SCp2 cells [3] = test: MMP-3-induced cell motility, invasion and morphological alterations (not shown); format: cell-based, mouse; details: NAC
cytokeratins = test: Epithelial cytokeratin levels in MMP-3-treated cells; format: cell-based, mouse
Description: Cell culture, antibodies, and plasmids. Cell culture was as previously described (Lochter, A. et al. Misregulation of stromelysin-1 expression in mouse mammary tumor cells accompanies acquisition of stromelysin-1-dependent invasive properties. J. Biol Chem 272, 5007-15, 1997; Lochter, A. et al. Matrix metalloproteinase stromelysin-1 triggers a cascade of molecular alterations that leads to stable epithelial-to-mesenchymal conversion and a premalignant phenotype in mammary epithelial cells. J Cell Biol 139, 1861-72, 1997); for gene repression, a 5 mg ml^−1 stock solution of tetracycline in 100% ethanol was diluted 1:1000 into culture medium and changed daily. To stimulate cells with MMP-3, we used medium that had been conditioned by SCp2 cells containing the tet-regulated, autoactivated MMP-3-construct (Lochter, A. et al. J Biol Chem 272, 5007-15, 1997; Lochter, A. et al. J Cell Biol 139, 1861-72, 1997) with expression induced by growth in the absence of tetracycline; conditioned medium from cells repressed by treatment with tetracycline was used for controls. This conditioned medium was analyzed by zymography to verify that only MMP-3 was being expressed, and was shown be active through extracellular proteolysis (FIG. 8). […] NAC was used at a concentration of 10 mM. […]

SCp2 cells [4] = test: LC50 of PALA for SCp2 cells; details: read-out: LC50 of PALA for SCp2 cells
[5] = test system: keratin, E-cadherin, vimentin, SM actin, TGFβ, Snail, collagen A1 and fibronectin; details: cells treated with MMP-3 for 4 days; FIG. 5b
CAD locus = test: Fluorescence in situ hybridization of CAD gene locus; format: cell-based, mouse; details: exposure to MMP-3; FIG. 4d
mammary epithelial cells = test: Cell motility assessed by scratch assay; format: cell-based, mouse; details: FIG. 1f
Description: FIG. 1f is a graph showing rate of cell migration and motility as assessed by scratch assay (Goodman, S. L., Vollmers, H. P., and Birchmeier, W. Cell 41, 1029-1038, 1985).

Cdc42 = details: MMP-3-treated cells; not shown
RhoA = details: MMP-3-treated cells; not shown
SCp2 cells [6] = details: MMP-3 for 14 days, then selected with PALA; FIG. 4f
Rac1b = details: mammary epithelial cells treated with MMP-3; FIGS. 1b-1d
cellular ROS = details: treatment with MMP-3; FIG. 2a
[7] = SCp2 cells, treatment with MMP-3 for 28 days, FIG. 5a

- MMP-3-mediated effects (MMP-3; cells treated with MMP-3): blocked
- malignant transformation (flattened morphology of invasive cells) of MMP-3 induced cells (MMP-3; coincubation with GM6001): prevents
Molecule: CNC(=O)[C@H](Cc1c[nH]c2ccccc12)NC(=O)[C@@H](CC(=O)NO)CC(C)C [GM6001]
- MMP-3-induced increase in FITC-avidin nuclear staining (8-oxodeoxyguanosine): blocked

Molecule: OO [H2O2, reference compound]
- expression of the transcription factor Snail (Snail): induced
- expression of mesenchymal vimentin (vimentin; FIG. 3g): can stimulate expression
- cell scattering (SCp2 cells [1]): cell scattering induced
- PALA resistance in the absence of MMP-3 (SCp2 cells [2]; H2O2 25 μM, FIG. 4e): reproduced

Molecule: CC(=O)N[C@@H](CS)C(=O)O [NAC, N-acetyl cysteine, reference compound]
- MMP-3-enhanced expression of transcription factor Snail (Snail; NAC 10 mM): blocked
- MMP-3-induced upregulation of mesenchymal vimentin (vimentin; NAC 10 mM, FIG. 3g): effectively inhibited
- MMP-3-induced cell motility, invasion, and morphological alterations (SCp2 cells [3]): inhibited
- MMP-3-induced PALA resistance / CAD amplification (SCp2 cells [2]; 14 d treatment with MMP-3, NAC 10 mM, FIG. 4e): inhibited
- MMP-3-induced downregulation of epithelial cytokeratins (cytokeratins; NAC 10 mM, FIG. 3a): effectively inhibited
- MMP-3-induced increase in FITC-avidin nuclear staining (8-oxodeoxyguanosine): blocked

Molecule: O=C(O)C[C@H](NC(=O)CP(=O)(O)O)C(=O)O [PALA, N-(phosphonacetyl)-L-aspartate]
- CC50 (SCp2 cells [4]): 25 µM

Molecule: MMP-3: autoactivated MMP-3 supplied as medium conditioned by SCp2 cells with tet-regulated construct
- expression of the transcription factor Snail (Snail): enhances expression
- transcript levels of keratin and E-cadherin [5]: greater than two-fold decrease
- transcript levels of vimentin, SM actin, TGFβ, Snail, collagen A1 and fibronectin [5]: two-fold or greater increase
- expression of mesenchymal vimentin (vimentin; FIG. 3g): can stimulate expression
- vimentin staining (vimentin; [7]): increase in vimentin
- CAD locus copy number in PALA-resistant cells (CAD locus): amplification of the CAD locus
- cell migration and motility (mammary epithelial cells): causes an increase
- activity of Cdc42 (Cdc42): unchanged
- activity of RhoA (RhoA): unchanged
- cell scattering (SCp2 cells [1]): cell scattering induced
- genomic alterations by CGH analysis (SCp2 cells [6]): many additional genomic amplifications and deletions
- Rac1b transcript and expression levels (Rac1b): upregulates
- PALA-resistant colonies, after 28 days of MMP-3 exposure (SCp2 cells [2]; SCp2 cells, 200 μM PALA, after 28 days): 700 colonies/10^5 cells
- PALA-resistant colonies, after one week of MMP-3 exposure (SCp2 cells [2]; SCp2 cells, 200 μM PALA, one week of MMP-3 exposure): 200 colonies/10^5 cells
- cytokeratin staining (cytokeratins; [7]): decrease in cytokeratins
- cellular ROS (DCFDA fluorescence) (cellular ROS): produced increases
- FITC-avidin nuclear staining (8-oxodeoxyguanosine; cells treated with MMP-3 vs untreated, FIG. 4a): significantly increased
